Patent US20110212169A1, “METHOD FOR PRODUCING POWDER CONTAINING NANOPARTICULATED SPARINGLY SOLUBLE DRUG, POWDER PRODUCED THEREBY AND PHARMACEUTICAL COMPOSITION CONTAINING SAME (As Amended)” (Amorepacific Corporation, priority 2008, published 2011)
Values belong to the compound of their own block, whether it stands above or below them.

Test: Particle size of drug after redispersion in distilled water (laser scattering particle size analyzer)
Type: physicochemical
Description: Each powder (0.01 g) was redispersed in distilled water (5 mL) and particle size was measured. Electron microscopic images of the powders when the concentration of the carageenan solution was 0.1 wt % and 2 wt % are shown in FIGS. 2a and 2b, respectively. The redispersion was conducted by lightly shaking the mixture with a hand. The particle size was measured under aqueous condition using a laser scattering particle size analyzer (LA 910, Horiba, Japan) (Mie & Fraunhofer, relative refraction index=1). The resolving power of the ultrasonic disperser used for the particle size measurement was 40 W (39 kHz), and the speed of stirring and circulation was 340 mL/min. The particle size measurement was made after performing ultrasonic dispersion for 1 minute.

Average particle size (1 wt % carageenan, hot air drying at 40 °C, redispersed in distilled water): 0.39 (±1.01) μm | Average particle size (1 wt % carageenan, hot air drying at 60 °C, redispersed in distilled water): 0.36 (±0.29) μm | drug particle size (alginic acid 1 wt %, vacuum drying at room temperature, redispersed in distilled water): 0.31 (±0.41) | drug particle size (alginic acid 2 wt %, vacuum drying at room temperature, redispersed in distilled water): 0.19 (±0.05) | Average particle size (carageenan 0.1 wt %, freeze dried powder redispersed in distilled water): 0.91 (±2.00) μm | Average particle size (carageenan 0.5 wt %, freeze dried powder redispersed in distilled water): 0.31 (±0.10) μm | Average particle size (carageenan 0.5 wt %, vacuum drying at room temperature, redispersed in distilled water): 0.36 (±0.71) μm | Average particle size (carageenan 1 wt %, freeze dried powder redispersed in distilled water): 0.28 (±0.08) μm | Average particle size (carageenan 1 wt %, vacuum drying at room temperature, redispersed in distilled water): 0.26 (±0.06) μm | Average particle size (carageenan 2 wt %, freeze dried powder redispersed in distilled water): 0.23 (±0.06) μm | Average particle size (carageenan 2 wt %, vacuum drying at room temperature, redispersed in distilled water): 0.21 (±0.06) μm | Average particle size (carageenan 3 wt %, freeze dried powder redispersed in distilled water): 0.26 (±0.07) μm | Average particle size (carageenan 3 wt %, vacuum drying at room temperature, redispersed in distilled water): 0.23 (±0.06) μm | Average particle size (carageenan 5 wt %, freeze dried powder redispersed in distilled water): 0.12 (±0.05) μm | drug particle size (gelatin 1 wt %, freeze drying, redispersed in distilled water): 0.45 (±0.89) | drug particle size (gelatin 2 wt %, freeze drying, redispersed in distilled water): 0.16 (±0.08) | drug particle size (gelatin 3 wt %, freeze drying, redispersed in distilled water): 0.13 (±0.06) | drug particle size (gelatin 3 wt %, vacuum drying at room temperature, redispersed in distilled water): 0.36 (±0.10) | drug particle size (gelatin 5 wt %, freeze drying, redispersed in distilled water): 0.16 (±0.05) | Average particle size (naproxen concentration 16 wt %, carageenan 0.5 wt %, freeze dried, redispersed in distilled water): 0.56 (±1.20) μm | Average particle size (naproxen concentration 16 wt %, carageenan 1 wt %, freeze dried, redispersed in distilled water): 0.22 (±0.07) μm | average particle size of the naproxen particles (slurry mixture after wet grinding (before drying) redispersed in distilled water): 0.10 μm
SMILES: COc1ccc2cc([C@H](C)C(=O)O)ccc2c1 [naproxen]

Average particle size (carageenan 5 wt %, freeze dried powder redispersed in distilled water, different drugs): 0.16 (±0.09) μm
SMILES: C=CC[C@@H]1/C=C(\C)C[C@H](C)C[C@H](OC)[C@H]2O[C@@](O)(C(=O)C(=O)N3CCCC[C@H]3C(=O)O[C@H](/C(C)=C/[C@@H]3CC[C@@H](O)[C@H](OC)C3)[C@H](C)[C@@H](O)CC1=O)[C@H](C)C[C@@H]2OC [Tacrolimus, tacrolimus]
